From patent US11629118B2, “Formulations with improved stability” (INSPIRNA, INC., priority 2017, dated 2023)

Legend:
[1] = Solubility study of Compound (II) in lipid excipients and surfactants; assay type: physicochemical; details: for solubility: thermodynamic from solid
Protocol: Compound (II) HCl and Compound (II) free base was weighed into vials and the appropriate amount of excipient was added to achieve the desired concentration. Heating and sonication was used, if necessary, to achieve clear solutions. Limits of solubility of Compound (II) free base and Compound (II) HCl (amorphous form) are noted in Table 1.

[2] = Further solubility study in Maisine 35-1:Gelucire 44/14:Lauroglycol 90 mixtures; details: 40-80% (w/w) Maisine 35-1; 20-40% Gelucire 44/14; 0-20% Lauroglycol 90
Protocol: (§1) A further solubility study of Compound (II) was conducted using lipid excipients and surfactants. Maisine 35-1 (glycerol linoleates):Gelucire 44/14 (lauroyl macrogol-32 glycerides):Lauroglycol 90 (propylene glycol monolaurate) mixtures were tested to explore the optimal combination. The following ranges of each substance were tested: (1) 40-80% (w/w) Maisine 35-1; (2) 20-40% (w/w) Gelucire 44/14; and (3) 0-20% (w/w) Lauroglycol 90.

[3] = Binary stressed-stability / compatibility study with excipients; assay type: physicochemical; details: in contact with Maisine 35-1 and Gelucire 44/14 (70:30 w/w)
Source text: The compatibility of Compound ([…]) with the following solubilizing/emulsifying excipients: Maisine 35-1; Gelucire 44/14; sodium oleate; sodium stearate; vitamin E TPGS; lysine; and sodium EDTA.

physchem = details: oil or lipid
Protocol: as §1

C[C@H](CCOc1cccc(CC(=O)O)c1)N(Cc1cccc(C(F)(F)F)c1Cl)CC(c1ccccc1)c1ccccc1.Cl [Compound (II) HCl salt]
150 to 200 mg/mL: Solubility in Maisine 35-1:Gelucire 44/14:Lauroglycol 90 mixtures [2]
50 mg/mL: Limit of solubility in Capmul MCM ([1]; excipient Capmul MCM) | Limit of solubility in Gelucire 50/13 ([1]; excipient Gelucire 50/13) | Limit of solubility in Plurol Oleique CC 497 ([1]; excipient Plurol Oleique CC 497)
100 mg/mL: Limit of solubility in Gelucire 44/14 ([1]; excipient Gelucire 44/14) | Limit of solubility in Lauroglycol FCC ([1]; excipient Lauroglycol FCC)
25 mg/mL: Limit of solubility in Labrafil M 1944 CS ([1]; excipient Labrafil M 1944 CS) | Limit of solubility in Labrafil M 2125 CS ([1]; excipient Labrafil M 2125 CS) | Limit of solubility in Labrafil M 2130 CS ([1]; excipient Labrafil M 2130 CS)
150 mg/mL: Limit of solubility in Capryol 90 ([1]; excipient Capryol 90) | Limit of solubility in Capryol PGMC ([1]; excipient Capryol PGMC) | Limit of solubility in Cremophor EL ([1]; excipient Cremophor EL) | Limit of solubility in Cremophor RH-40 ([1]; excipient Cremophor RH-40) | Limit of solubility in Labrasol ([1]; excipient Labrasol) | Limit of solubility in Lauroglycol 90 ([1]; excipient Lauroglycol 90) | Limit of solubility in Maisine 35-1 ([1]; excipient Maisine 35-1) | Limit of solubility in Peceol ([1]; excipient Peceol) | Limit of solubility in Phosal 53 MCT ([1]; excipient Phosal 53 MCT) | Limit of solubility in Transcutol ([1]; excipient Transcutol) | Limit of solubility in VitE-TPGS ([1]; excipient VitE-TPGS)
200 mg/mL: Limit of solubility in Ethanol ([1]; excipient Ethanol) | Limit of solubility in PEG-200 ([1]; excipient PEG-200) | Limit of solubility in PEG-300 ([1]; excipient PEG-300) | Limit of solubility in PEG-400 ([1]; excipient PEG-400) | Limit of solubility in Phosal 50-PG ([1]; excipient Phosal 50-PG) | Limit of solubility in Propylene Glycol ([1]; excipient Propylene Glycol) | Limit of solubility in Tween-20 ([1]; excipient Tween-20) | Limit of solubility in Tween-80 ([1]; excipient Tween-80)

C[C@H](CCOc1cccc(CC(=O)O)c1)N(Cc1cccc(C(F)(F)F)c1Cl)CC(c1ccccc1)c1ccccc1 [Compound (II), 2-{3-[(3R)-3-({[2-chloro-3-(trifluoromethyl)phenyl]methyl}(2,2-diphenylethyl)amino)butoxy]phenyl}acetic acid]
150 mg/mL: solubility ([1]; oil or lipid, excipient Gelucire 50/13, read-out: Limit of solubility in Gelucire 50/13)
> 200 mg/mL: solubility ([1]; aqueous with cosolvent or surfactant or cyclodextrin, excipient Tween-20, read-out: Limit of solubility in Tween-20) | solubility ([1]; aqueous with cosolvent or surfactant or cyclodextrin, excipient Tween-80, read-out: Limit of solubility in Tween-80) | solubility ([1]; aqueous with cosolvent or surfactant or cyclodextrin, excipient VitE-TPGS, read-out: Limit of solubility in VitE-TPGS) | solubility ([1]; oil or lipid, excipient Capryol 90, read-out: Limit of solubility in Capryol 90) | solubility ([1]; oil or lipid, excipient Capryol PGMC, read-out: Limit of solubility in Capryol PGMC) | solubility ([1]; oil or lipid, excipient Cremophor EL, read-out: Limit of solubility in Cremophor EL) | solubility ([1]; oil or lipid, excipient Cremophor RH-40, read-out: Limit of solubility in Cremophor RH-40) | solubility ([1]; oil or lipid, excipient Gelucire 44/14, read-out: Limit of solubility in Gelucire 44/14) | solubility ([1]; oil or lipid, excipient Labrafac Lipo WL 1349, heating and sonication if necessary, read-out: Limit of solubility in Labrafac Lipo WL 1349) | solubility ([1]; oil or lipid, excipient Labrafac PG, read-out: Limit of solubility in Labrafac PG) | solubility ([1]; oil or lipid, excipient Labrafil M 1944 CS, read-out: Limit of solubility in Labrafil M 1944 CS) | solubility ([1]; oil or lipid, excipient Labrafil M 2125 CS, read-out: Limit of solubility in Labrafil M 2125 CS) | solubility ([1]; oil or lipid, excipient Labrafil M 2130 CS, read-out: Limit of solubility in Labrafil M 2130 CS) | solubility ([1]; oil or lipid, excipient Labrasol, read-out: Limit of solubility in Labrasol) | solubility ([1]; oil or lipid, excipient Lauroglycol 90, read-out: Limit of solubility in Lauroglycol 90) | solubility ([1]; oil or lipid, excipient Lauroglycol FCC, read-out: Limit of solubility in Lauroglycol FCC) | solubility ([1]; oil or lipid, excipient Maisine 35-1, read-out: Limit of solubility in Maisine 35-1) | solubility ([1]; oil or lipid, excipient Peceol, read-out: Limit of solubility in Peceol) | solubility ([1]; oil or lipid, excipient Phosal 50-PG, read-out: Limit of solubility in Phosal 50-PG) | solubility ([1]; oil or lipid, excipient Phosal 53 MCT, read-out: Limit of solubility in Phosal 53 MCT) | solubility ([1]; oil or lipid, excipient Plurol Oleique CC 497, read-out: Limit of solubility in Plurol Oleique CC 497) | solubility ([1]; organic solvent or mixture, excipient Ethanol, read-out: Limit of solubility in Ethanol) | solubility ([1]; organic solvent or mixture, excipient PEG-200, read-out: Limit of solubility in PEG-200) | solubility ([1]; organic solvent or mixture, excipient PEG-300, read-out: Limit of solubility in PEG-300) | solubility ([1]; organic solvent or mixture, excipient PEG-400, read-out: Limit of solubility in PEG-400) | solubility ([1]; organic solvent or mixture, excipient Propylene Glycol, read-out: Limit of solubility in Propylene Glycol) | solubility ([1]; organic solvent or mixture, excipient Transcutol, read-out: Limit of solubility in Transcutol)
> 250 mg/mL: solubility (physchem)
No significant degradation: Degradation ([3]; after 15 days of storage at −20° C.)
acceptable: Short-term stability ([3]; room temperature (about 20° C.) for 8 days)
approximately 9%: Degradation ([3]; room temperature, by 15 days)
